In patent publication US20070098801A1, “Particles shaped as platelets” (JANSSEN PHARMACEUTICA N.V., priority 2003, published 2007):

Test: Modulated differential scanning calorimetry (glass transition in the reversing signal)
Format: physicochemical
Procedure: Modulated Differential scanning calorimetry (MDSC) was performed to evaluate the thermal characteristics before and after melt extrusion with injection of pressurized carbon dioxide. […] A glass transition is observed as an inflection in the DSC profile when heat flow is plotted against temperature. Often, the glass transition is accompanied with an enthalpy relaxation, which is seen as an endothermic signal superimposed on the glass transition. Furthermore, these polymers can be hydrophilic and thus they may have adsorbed a significant amount of water. Evaporation of water is also an endothermic process. These signals make interpretation of the glass transition difficult. Therefore, MDSC was used so that the different thermal events could be elucidated with regard to the reversible and non-reversible transitions. […]
The measurements were performed using a TA Instruments modulated DSC Q1000 differential scanning calorimeter and thermal analysis controller (TA Instruments, New Castle, Del., USA). […] The samples were analysed in standard (open) aluminum as well as in hermetically sealed TA Instruments pans. […] The glass transition was measured at the inflection point as half the height of the shift in the heat flow signal (Tg 1/2 cp). […]
The samples measured in open pans as well as in hermetically sealed pans were analysed at least in duplicate.

SMILES: CCC(C)n1ncn(-c2ccc(N3CCN(c4ccc(OCC5COC(Cn6cncn6)(c6ccc(Cl)cc6Cl)O5)cc4)CC3)cc2)c1=O (stereo not shown) [itraconazole]
- Melting enthalpy ΔH of pure itraconazole: 85 J/g
